Assay results taken from a melting point compilation (Tetko et al.; mined from patent text by program, amines drawn as free bases though some values may be those of a salt).

Compared with `CC(C(=O)NC(C)(C)C)c1cc(Cl)ccc1C(=O)O` (configuration not stated), `COCCOc1ccc(O)c(C(=O)O)c1` is lower in melting point: 175 to 178 °C for the first, 115 to 116 °C for the second.

First: COc1ccc(S(=O)(=O)N2C(=O)[C@@](c3ccccc3OC)(N3C[C@H](OC(C)=O)C[C@H]3C(=O)N(C)C)c3cc(Cl)ccc32)c(OC)c1
Second: COc1ccc(C2=NC(NC(=O)CCc3ccc(Cl)cc3Cl)C(=O)N(C)c3ccccc32)cc1 (configuration not stated)
The melting point of the first is higher: 194 to 195 °C for the first, 188 to 189 °C for the second.

Compared with `Cn1cc(C(=O)F)c(C(F)F)c1`, `COC(=O)c1cc([N+](=O)[O-])nn1C` is higher in melting point: 53 to 54 °C for the first, 65 to 66 °C for the second.

First: O=C(O)CCc1[nH]nc2c1CCCCC2
Second: CC(=O)c1cnc2c(n1)CCCC2
The melting point of the first is higher: 102 to 105 °C for the first, 42 to 45 °C for the second.

First: Cc1ccccc1Nc1nc(NCCc2ccccc2)nc2ccccc12
Second: c1ccc(N=C2N=C(c3ccccc3)N=C2Nc2ccccc2)cc1
The melting point of the first is lower: 95 to 96 °C for the first, 201 °C for the second.

First: C[Si](C)(C)c1sc(C=O)cc1Oc1ccccc1
Second: COC(=O)c1ccc(Br)cc1COc1ccccc1
The melting point of the first is higher: 120 to 122 °C for the first, 69.5 to 70.5 °C for the second.

First: Fc1cc(F)c(C(Cl)(Cl)Cl)cc1C(Cl)(Cl)Cl
Second: O=[N+]([O-])c1cc([N+](=O)[O-])c(N(SC(Cl)(Cl)Cl)c2cc(C(F)(F)F)ccc2Cl)c(C(F)(F)F)c1
The melting point of the first is lower: 77 to 79 °C for the first, 134 to 137 °C for the second.

First: COC(=O)Cc1c(C)nn(-c2ccccc2)c1C
Second: CCOC(=O)c1nn(C)c(-c2ccccc2)c1S(N)(=O)=O
The melting point of the first is lower: 63 to 64 °C for the first, 141 to 144 °C for the second.

First: O=c1c(-c2ccccc2)c(CNc2ncnc3[nH]cnc23)oc2ccc(F)cc12
Second: CC(C)n1nc(-c2c(NC(=N)N)nc(N)nc2-c2ccccc2)ccc1=O
The melting point of the first is lower: 183 to 186 °C for the first, 272 to 274 °C for the second.

First: CC(C)(C)OC(=O)Nn1ccc2ccccc21
Second: Cc1c(CCNC(=O)OC(C)(C)C)c2cc(S(=O)(=O)c3ccccc3)ccc2n1C
The melting point of the first is lower: 112 to 116 °C for the first, 151 to 155 °C for the second.

First: CCNC(=O)C1=C(OC(C)C)c2cc(OC)ccc2S1=O (configuration not stated)
Second: CCOc1ccc(C=CC(=O)c2c(OC)cc(OC)cc2OP(=O)(O)O)cc1
The melting point of the first is higher: 88 to 90 °C for the first, 63 to 64 °C for the second.

First: CCNC1c2cc(S(N)(=O)=O)oc2SCC1(C)C (configuration not stated)
Second: CC1=C(O)C(=O)C(C)(CO)O1 (configuration not stated)
The melting point of the first is higher: 147 °C for the first, 124 to 125 °C for the second.

First: COc1cc2ccc(C(=O)CCC(=O)O)cc2cc1OC
Second: COc1ccc(Cc2ncc(C(=O)O)c3cc(OC)c(OC)cc23)cc1OC
The melting point of the first is lower: 215 to 229 °C for the first, 235 to 236 °C for the second.

Compared with `O=C(NCCc1ccccc1)c1ccccc1-c1ccccc1CNS(=O)(=O)c1cccc(C(F)(F)F)c1`, `O=C(CNS(=O)(=O)c1ccccc1)c1ccc(OCc2ccccc2)cc1` is higher in melting point: 145 °C for the first, 148 to 149 °C for the second.

First: O=C1CCN(Cc2cccnc2)C(=O)C1=C1SC=CS1
Second: O=C(Nc1cccnc1)N1CCc2cc(Cl)ccc21
The melting point of the first is lower: 132 to 133 °C for the first, 204 to 205 °C for the second.

First: CSc1ncnc2c1ncn2COC(COC(C)=O)COC(C)=O
Second: CCOC(=O)c1c(OCC)nsc1NC(=O)N(C)C
The melting point of the first is higher: 191 to 193 °C for the first, 164 to 165 °C for the second.

Compared with `CSc1nc(I)ncc1Br`, `CSc1nncc(-c2cccc(Cl)c2)n1` is higher in melting point: 72 to 76 °C for the first, 79 to 81 °C for the second.

First: CCCOc1cc(C)c(C=CC(C)=CC=CC(C)=CC(=O)OCC)c(C)c1C
Second: COc1ccc(C(=O)Oc2c(C)c(C)c3oc(C)c(-c4ccc(C(C)C)cc4)c3c2C)cc1
The melting point of the first is higher: 200 to 201 °C for the first, 113 to 115 °C for the second.

First: CCCCCCCC[C@H](O)[C@H](O)[C@H]1CCC(=O)O1
Second: CCCCC[C@@H](C)C[C@H](CN)CC(=O)O
The melting point of the first is lower: 117 to 119 °C for the first, 174 to 175 °C for the second.

First: CCCCCCCCCCOc1ccc(OCc2ccccc2)c(C(=O)O)c1
Second: Cc1c(C(=O)C(N)=O)c2c(OCC(=O)O)cccc2n1Cc1ccccc1
The melting point of the first is lower: 63 to 65 °C for the first, 218 to 220 °C for the second.

First: C1=C(/C=C/c2ccccc2)CCN(Cc2n[nH]c3c2CCc2ccccc2-3)C1
Second: O=c1c2ccccc2nnn1CCCN1CC=C(c2c[nH]c3ccccc23)CC1
The melting point of the first is higher: 205 to 210 °C for the first, 189 °C for the second.

Compared with `CCCCCCCCCCSCCCN=C=O`, `CCCCCCc1ccc(-c2ccc(-c3ccc(-c4ccc(-c5ccc(-c6ccc(CCCCCC)o6)o5)o4)o3)o2)o1` is higher in melting point: 89 to 92 °C for the first, 261 °C for the second.

First: CCC(CC)N(O)C(=O)Nc1ccc(Cc2ccc(NC(=O)N(O)C(CC)CC)c(Cl)c2)cc1Cl
Second: COc1ccc2c(C(=O)O)nn(Cc3ccc(Cl)c(Cl)c3)c(=O)c2c1
The melting point of the first is lower: 172 to 173 °C for the first, 238 to 240 °C for the second.

Compared with `CCCCc1cnc(-c2ccc(N)cc2)nc1`, `CCCCc1oc2ccc(C#N)cc2c1C(=O)c1ccc(O)cc1` is lower in melting point: 154 to 156 °C for the first, 152 to 153 °C for the second.

First: N#Cc1sc2cc(N)ccc2c1Cl
Second: Nc1c(Br)cc(Cl)cc1C(=O)c1ccccc1Cl
The melting point of the first is higher: 158 to 160 °C for the first, 100 to 101 °C for the second.

First: C[C@@H]1O[C@](/C=C/C2CC2)(C(F)(F)F)c2c(ccc3c2OCO3)NC1=O (relative stereo)
Second: O=C1N=CC(OCC2CC2)(C(F)(F)F)c2cc(F)ccc2N1 (configuration not stated)
The melting point of the first is higher: 236 to 237 °C for the first, 198 to 199 °C for the second.

Compared with `N#CC(N)=C(C#N)NCc1cnn(-c2c(Cl)cc(C(F)(F)F)cc2Cl)n1`, `CCC(=O)Nc1c(Cl)cnn1-c1ccc(Cl)c(Cl)c1Cl` is lower in melting point: 191 to 192 °C for the first, 122 °C for the second.

First: O=C(Cc1ccc2ccn(C3CCN(CCc4ccc(F)cc4)CC3)c2c1)NCCO
Second: Cc1nnc2c(NC(N)=O)cc3cc(-c4ccc(CN5CCCCC5)cc4)ccc3n12
The melting point of the first is lower: 140 to 141 °C for the first, > 260 °C for the second.

First: Cc1nc2cc(Cl)ccc2c(=O)n1C1CCC(=O)NC1=O (configuration not stated)
Second: O=c1[nH]c2cc(Br)ccc2c(=O)n1Cc1ccc(I)cc1F
The melting point of the first is lower: 291 to 293 °C for the first, 303 to 304 °C for the second.

First: OC(c1ccncc1)(c1ccc(F)c(F)c1)c1ccc(F)c(F)c1
Second: O=S(=O)(Nc1ccccc1/C=C/c1ccncc1)c1ccc(OC(F)(F)F)cc1
The melting point of the first is lower: 147 to 149 °C for the first, 151 to 153 °C for the second.

First: CCOC(=O)c1sc(-n2ccc(OCC3CC3)cc2=O)nc1C
Second: CN(C[C@H]1CC[C@H](c2nc3ccccc3[nH]2)CC1)C(=O)OCc1ccccc1
The melting point of the first is higher: 180 to 183 °C for the first, 146 to 148 °C for the second.

Compared with `COc1ccc(Cn2ncc(N3CCOCC3)c(C=NO)c2=O)cc1`, `CCNC(=O)c1ccc(N2CCN(Cc3cnc4c(c3)[nH]c(=O)n3cccc43)CC2)c(F)c1` is higher in melting point: 166 to 168 °C for the first, 263 to 267 °C for the second.

Compared with `COC(=O)[C@H](Cc1ccc(O[Si](C)(C)C(C)(C)C)cc1)NC(=O)Nc1n[nH]c(=S)s1`, `CC(C)(C)c1cc(C(O)C#Cc2ccc(C(=O)O)c(O)c2)cc(C(C)(C)C)c1OCOCC[Si](C)(C)C` (configuration not stated) is higher in melting point: 139 to 142 °C for the first, 146 to 147 °C for the second.

Compared with `N#CCOc1cc2ccccc2cc1I`, `O=S(=O)(Cc1ccccc1)c1c(Cl)nc(Cl)nc1Cl` is higher in melting point: 105 to 107 °C for the first, 160 to 162 °C for the second.

First: O=[N+]([O-])c1cc2nc(O)c(O)nc2c2c([N+](=O)[O-])cccc12
Second: N=C(N)Nc1nc(-c2cccc([N+](=O)[O-])c2)no1
The melting point of the first is higher: > 300 °C for the first, 290 to 291 °C for the second.

Compared with `CCCN(Cc1ccccc1)c1cccc(-c2nc(NC)nc3cc(OC)c(OC)cc23)c1`, `COc1cc(Cc2cnc(N)nc2N)cc(-c2ccc(N(C)C)cc2)c1OC` is higher in melting point: 75 to 77 °C for the first, 230 °C for the second.

First: Fc1cc(F)cc(NC(=S)c2ccccn2)c1
Second: CNC(=S)Nc1ccccc1-c1ccccc1
The melting point of the first is lower: 140 to 142 °C for the first, 152 to 153 °C for the second.

First: O=[N+]([O-])c1cn(-c2cccnc2)nc1-c1ccccc1
Second: O=C(O)c1c(-c2ccccc2)csc1N1C(=O)c2ccccc2C1=O
The melting point of the first is lower: 144 to 146 °C for the first, 198 to 199 °C for the second.

Compared with `O=c1c2ccccc2sc2c(Cl)cc(Cl)c(Oc3ccccc3)c12`, `O=C(O)c1ccc(Oc2ccc(Oc3ccccc3)cc2)cc1` is lower in melting point: 197 to 198 °C for the first, 185 °C for the second.

Compared with `COc1cccc(OC)c1-c1cc(C(=O)NC2(C(=O)O)C3CC4CC(C3)CC2C4)nn1-c1ccc(C(=O)NC2CC(C)(C)NC(C)(C)C2)cc1C(C)C` (configuration not stated), `COc1cc(CC(C)(C)NC(=O)c2ccc(Cl)nc2)cc2c1OC(C)(C)C2` is lower in melting point: 270 to 272 °C for the first, 118 to 119 °C for the second.

Compared with `CON(C)C(=O)C(C)NC(=O)OC(C)(C)C` (configuration not stated), `Cc1c(CO)nc2c(NC(=O)C(C)(C)C)cccn12` is higher in melting point: 150 to 151 °C for the first, 186 to 187 °C for the second.

First: O=c1[nH]c2ccc(OC3CCCC3)cc2n1C1CCCCC1
Second: CN(Cc1ccccc1)C1(CNC(=O)c2ccc(Cl)c(Cl)c2)CCCCC1
The melting point of the first is higher: 242 °C for the first, 139 to 145 °C for the second.

First: NC[C@@H]1CNc2cccc(-c3ccccc3C(F)(F)F)c2O1
Second: CC(C)OC(=O)N1CCC(c2ccc3oc(-c4ccc(C(F)(F)F)cc4)nc3c2)CC1
The melting point of the first is higher: 180 °C for the first, 145 to 148 °C for the second.

First: Cc1[nH]c2ncnc(N3CCCc4ccccc43)c2c1C
Second: CCn1ncc2c(O)c3c(nc21)CCc1ccccc1C3=O
The melting point of the first is higher: 263 to 264 °C for the first, 154 to 155 °C for the second.

First: CCOC(=O)c1cnc2c(SC(=O)N3CCN(Cc4ccc5c(c4)OCO5)CC3)cccn2c1=O
Second: Cn1cc(C(=O)NCc2ccc(Cl)cc2)c(=O)c2cc(CN3CCOCC3)cc(C#CCC[C@@H]3COC(=O)N3)c21
The melting point of the first is lower: 159 to 161 °C for the first, 171 to 173 °C for the second.

First: CCOC(=O)c1nc(-c2cccnc2)[nH]c1N=NN(C)C
Second: CNC(=O)CC1CN=C(c2cc3cc(Oc4ccc(S(C)(=O)=O)cn4)cc(OC(C)C)c3[nH]2)S1 (configuration not stated)
The melting point of the first is lower: 125 °C for the first, 190 to 192 °C for the second.

First: Nc1ncnc2c1c(-c1ccc(Oc3ccccc3CN3CCOCC3)cc1)cn2C1CCOC1 (configuration not stated)
Second: CC(C)(O)CCOc1c(-c2ccc(S(C)(=O)=O)cc2)cnn(-c2ccc(Cl)c(Cl)c2)c1=O
The melting point of the first is higher: 169 to 171 °C for the first, 118 to 120 °C for the second.

First: Oc1ccc(-c2cc(S)n3nccc3n2)cc1O
Second: CNS(=O)(=O)c1ccc(C2CCN(c3ccncc3)CC2)cc1
The melting point of the first is higher: > 280 °C for the first, 225 to 228 °C for the second.

Compared with `N#CCCNC(=O)c1n[nH]cc1NC(=O)c1cccs1`, `CCCc1cccc(=O)[nH]1` is lower in melting point: 226 to 227 °C for the first, 89 to 90 °C for the second.

First: CCCn1c(=O)c2c(N3CCN(C)CC3)cc(Cl)cc2n(Cc2ccccc2)c1=O
Second: CC(=O)COc1nc(N2CCCCC2)c2nc(OCC(C)=O)nc(N3CCCCC3)c2n1
The melting point of the first is lower: 120 to 121 °C for the first, 188 to 189 °C for the second.

First: CC(C)Oc1nc(O)ns1
Second: CC(=O)OC1(C(=O)CO)CCC2C3CC(C)C4=CC(=O)C=CC4(C)C3C(O)CC21C (configuration not stated)
The melting point of the first is lower: 74 °C for the first, 198 to 201 °C for the second.
